We go through 34 compounds from the Kinase Knowledgebase extract (Sharma et al. 2016).

Test [1] addresses PIK3CA (human) (UniProt P42336). Briefly: Inhibition of A2780 Cell Proliferation.
Test [2] shares this target. Briefly: Inhibition of PIK3CA Kinase Activity.

Sequence of PIK3CA (human) (P42336 whole entry, looked up): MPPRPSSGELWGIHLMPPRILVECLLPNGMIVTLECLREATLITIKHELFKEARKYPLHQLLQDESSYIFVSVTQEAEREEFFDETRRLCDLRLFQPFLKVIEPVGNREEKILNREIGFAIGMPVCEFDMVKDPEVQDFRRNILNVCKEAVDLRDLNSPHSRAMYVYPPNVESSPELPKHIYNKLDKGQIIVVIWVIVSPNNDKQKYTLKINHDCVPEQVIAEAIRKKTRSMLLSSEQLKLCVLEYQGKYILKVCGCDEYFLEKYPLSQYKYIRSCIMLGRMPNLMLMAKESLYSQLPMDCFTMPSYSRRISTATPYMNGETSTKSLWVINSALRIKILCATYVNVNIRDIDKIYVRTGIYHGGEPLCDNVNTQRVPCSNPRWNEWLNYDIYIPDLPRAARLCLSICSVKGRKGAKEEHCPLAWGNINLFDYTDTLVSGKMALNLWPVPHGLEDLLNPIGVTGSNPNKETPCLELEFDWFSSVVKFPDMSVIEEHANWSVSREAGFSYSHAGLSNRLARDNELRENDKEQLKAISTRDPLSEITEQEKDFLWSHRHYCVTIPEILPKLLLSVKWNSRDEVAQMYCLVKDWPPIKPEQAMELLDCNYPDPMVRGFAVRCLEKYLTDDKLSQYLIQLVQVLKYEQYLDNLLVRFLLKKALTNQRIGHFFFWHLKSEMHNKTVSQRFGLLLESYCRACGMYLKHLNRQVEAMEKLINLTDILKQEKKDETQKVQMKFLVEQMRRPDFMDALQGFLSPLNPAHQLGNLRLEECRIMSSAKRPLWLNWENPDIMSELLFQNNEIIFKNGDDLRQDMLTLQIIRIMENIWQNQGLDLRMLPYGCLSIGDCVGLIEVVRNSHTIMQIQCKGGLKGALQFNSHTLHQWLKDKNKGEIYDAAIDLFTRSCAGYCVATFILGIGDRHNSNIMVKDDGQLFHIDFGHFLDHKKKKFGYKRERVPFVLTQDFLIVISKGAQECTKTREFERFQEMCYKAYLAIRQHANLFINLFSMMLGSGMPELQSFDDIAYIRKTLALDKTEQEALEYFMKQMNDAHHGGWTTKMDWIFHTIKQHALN

The compound `COc1c(-c2cnc(N)c(C(F)(F)F)c2)ccc2nc(NC(=O)C(F)(F)F)cn12` had an EC50 at PIK3CA (human) [1] below 25 µM. For the same compound, the half-inhibitory concentration (IC50) at PIK3CA (human) [2] was below 25 µM.
`CC(=O)Nc1nc2ccc(-c3cnc(N)nc3C(F)(F)F)cc2s1` had a half-maximal effective concentration (EC50) at PIK3CA (human) [1] below 25 µM. The compound further gave an IC50 on PIK3CA (human) [2] below 1 µM.
The like results for `CCN1CCCCC1CCC(=O)Nc1cn2nc(-c3cnc(N)c(C(F)(F)F)c3)ccc2n1` (stereo not drawn) were, in that order, below 1 µM and below 1 µM.
The like results for `Nc1ncc(-c2ccc3nc(NC(=O)C4CNC4)cn3n2)cc1C(F)(F)F` were, in that order, below 10 µM and below 1 µM.
In turn, `CCOCC(=O)Nc1cn2cc(-c3cnc(N)c(C(F)(F)F)c3)ccc2n1` registered a 50% effective concentration (EC50) on PIK3CA (human) [1] below 10 µM. In addition, the IC50 against PIK3CA (human) [2] is below 1 µM.
At PIK3CA (human) [1], `C[C@H](N)C(=O)Nc1cn2nc(-c3cnc(N)c(C(F)(F)F)c3)ccc2n1` displayed an EC50 below 10 µM. Further, the IC50 at PIK3CA (human) [2] was below 1 µM.
Taken in the same sequence, the figures for `CC(=O)Nc1cn2nc(-c3cnc(N)c(OC(F)F)c3)ccc2n1` were below 1 µM and below 1 µM.
The like results for `CCC(=O)Nc1cn2cc(-c3cnc(N)c(C(F)(F)F)c3)ccc2n1` were, in that order, below 10 µM and below 1 µM.
`CC(C)(C)OC(=O)NCCCC(=O)Nc1cn2nc(-c3cnc(N)c(C(F)(F)F)c3)ccc2n1` gave an EC50 on PIK3CA (human) [1] below 1 µM. This compound yielded a 50% inhibitory concentration (IC50) against PIK3CA (human) [2] below 1 µM.
The compound `Nc1ccc(-c2ccc3nc(NC(=O)CN4CCOCC4)sc3c2)cn1` came in with an EC50 on PIK3CA (human) [1] below 25 µM. The compound further yielded a half-maximal inhibitory concentration (IC50) on PIK3CA (human) [2] below 1 µM.
The compound `CN(CC(=O)Nc1cn2cc(-c3cnc(N)c(C(F)(F)F)c3)ccc2n1)C(=O)OC(C)(C)C` returned an EC50 at PIK3CA (human) [1] below 10 µM. Moreover, the half-maximal inhibitory concentration (IC50) on PIK3CA (human) [2] was below 1 µM.
Taken in the same sequence, the figures for `CC(=O)Nc1cn2cc(-c3cnc(N)c(Cl)c3)ccc2n1` were below 10 µM and below 1 µM.
The like results for `CNC(=O)c1ccc(-c2c(NC(C)=O)nc3ccc(-c4cnc(N)c(C(F)(F)F)c4)cn23)cc1` were, in that order, below 25 µM and below 1 µM.
`CC(=O)Nc1cn2cc(-c3cnc(N)c(CN4CCCC4)c3)ccc2n1` registered a 50% effective concentration (EC50) on PIK3CA (human) [1] below 25 µM. The compound further yielded an IC50 against PIK3CA (human) [2] below 1 µM.
The like results for `CC(=O)Nc1cn2cc(-c3cnc(N)c(Oc4ccc(F)cc4)n3)ccc2n1` were, in that order, below 1 µM and below 1 µM.
Compound `COC(=O)Nc1nc2ccc(-c3ccc(N)nc3)cc2s1` returned an EC50 on PIK3CA (human) [1] below 10 µM. The IC50 on PIK3CA (human) [2] was below 1 µM.
As for `CC(C)(C(=O)Nc1cn2cc(-c3cnc(N)c(C(F)(F)F)c3)ccc2n1)c1ccccc1`, at PIK3CA (human) [1], the EC50 is below 25 µM. Also, the 50% inhibitory concentration (IC50) at PIK3CA (human) [2] is below 10 µM.
For `COCCOc1nc(-c2ccc3nc(NC(=O)CN4CCCCC4)cn3c2)cnc1N`, the half-maximal effective concentration (EC50) on PIK3CA (human) [1] was below 10 µM. On PIK3CA (human) [2], this compound showed an IC50 below 1 µM.
Taken in the same sequence, the figures for `Nc1ncc(-c2ccc3nc(NC(=O)Cc4cccc5ccccc45)cn3c2)cc1C(F)(F)F` were below 1 µM and below 1 µM.
The like results for `CC(=O)Nc1cn2nc(-c3cnc(N)c(-c4ccn(C)n4)c3)ccc2n1` were, in that order, below 1 µM and below 1 µM.
Taken in the same sequence, the figures for `CC(=O)Nc1cn2nc(-c3cnc(N)c(C(=O)NCCNC(=O)OC(C)(C)C)c3)ccc2n1` were below 1 µM and below 1 µM.
`Nc1ncc(-c2ccc3nc(NC(=O)c4cccc(Cl)c4)cn3c2)cc1C(F)(F)F` came in with an EC50 at PIK3CA (human) [1] below 10 µM. Moreover, the IC50 against PIK3CA (human) [2] was below 1 µM.
Turning to `CC(=O)Nc1cn2cc(-c3ccc(N)nc3C)ccc2n1`, at PIK3CA (human) [1], the EC50 is below 25 µM. This compound also registered an IC50 at PIK3CA (human) [2] below 1 µM.
Regarding `CC(=O)Nc1cn2cc(-c3ccc(N)nc3F)ccc2n1`, the EC50 at PIK3CA (human) [1] was below 10 µM. The same compound gave an IC50 against PIK3CA (human) [2] below 1 µM.
The like results for `CC(=O)Nc1nc2ccc(-c3cnc(N)c(C(F)(F)F)c3)cn2c1C#CCN1CCOCC1` were, in that order, below 10 µM and below 1 µM.
The like results for `C/C=C/c1c(NC(C)=O)nc2ccc(-c3cnc(N)c(C(F)(F)F)c3)cn12` were, in that order, below 10 µM and below 1 µM.
Taken in the same sequence, the figures for `CC(=O)Nc1cn2cc(-c3cnc(N)c(C=NN(C)C)c3)ccc2n1` were below 10 µM and below 1 µM.
Take `CC(=O)Nc1cn2cc(-c3cnc(N)c(C=NNCC(F)(F)F)c3)ccc2n1`: the EC50 at PIK3CA (human) [1] is below 1 µM. Also, the 50% inhibitory concentration (IC50) on PIK3CA (human) [2] was below 1 µM.
On to `CC(=O)Nc1nc2c(F)cc(-c3cnc(N)c(C(F)(F)F)c3)cc2s1`, for which, at PIK3CA (human) [1], the EC50 is below 25 µM. The same compound returned a half-inhibitory concentration (IC50) against PIK3CA (human) [2] below 1 µM.
Taken in the same sequence, the figures for `NCC(=O)Nc1cn2nc(-c3cnc(N)c(C(F)(F)F)c3)ccc2n1` were below 1 µM and below 1 µM.
Taken in the same sequence, the figures for `CC(=O)Nc1nc2ccc(-c3cnc(N)c(C(F)(F)F)c3)cn2c1C#Cc1ccc(C)cc1` were below 10 µM and below 1 µM.
The like results for `CCN1CC[C@@H](OCC(=O)Nc2cn3cc(-c4cnc(N)c(C(F)(F)F)c4)ccc3n2)C1` were, in that order, below 10 µM and below 1 µM.
Take `Nc1ncc(-c2ccc3nc(NC(=O)N4CCCC4c4ccccn4)cn3c2)cc1C(F)(F)F` (stereo not drawn): on PIK3CA (human) [1], the concentration giving a half-maximal response (EC50) is below 25 µM. The compound also returned an IC50 at PIK3CA (human) [2] below 1 µM.
The compound `Nc1ncc(-c2ccc3nc(NC(=O)c4cccnc4)cn3c2)cc1C(F)(F)F` had an EC50 on PIK3CA (human) [1] below 10 µM. On PIK3CA (human) [2], the IC50 is below 1 µM.
